Assay results reported in patent US20240116857A1 (St. Louis University, priority 2022, published 2024).

Each compound was assayed on E. coli BW25113 (assay: MIC, 2-fold broth dilution, E. coli BW25113). Settings: Escherichia coli; E. coli BW25113; asterisk in column 1-10; read-out: MIC, μM 1-10.
Type: cell-based, Escherichia coli
`C[n+]1ccc(Nc2ccc(NC(=O)c3ccc(Cc4ccc(C(=O)Nc5ccc(Nc6cc[n+](C)cc6)cc5)cc4)cc3)cc2)cc1` [Example 52, 4,4′-((((4,4′-methylenebis(benzoyl))bis(azanediyl))bis(4,1-phenylene))bis(azanediyl))bis(1-methylpyridin-1-ium)] showed an MIC of 1 to 10 µM.
`C[n+]1ccc(-c2ccc(NC(=O)c3ccc(C(=O)Nc4ccc(-c5cc[n+](C)cc5)cc4)cc3)cc2)cc1` [Example 56] gave an MIC of 1 to 10 µM.
`C[n+]1ccc(Nc2ccc(NC(=O)c3ccc(C(=O)Nc4ccc(Nc5cc[n+](C)cc5)cc4)c(F)c3)cc2)cc1` [Example 58, 4,4′-((((2-fluoroterephthaloyl)bis(azanediyl))bis(4,1-phenylene))bis(azanediyl))bis(1-methylpyridin-1-ium)] was tested, and the MIC was 1 to 10 µM.
`C[N+](C)(C)c1ccc(NC(=O)c2ccc(-c3ccc(C(=O)Nc4ccc([N+](C)(C)C)c(F)c4)cc3)cc2)cc1F` [Example 77, 2-fluoro-4-(4′-{[3-fluoro-4-(trimethylazaniumyl)phenyl]carbamoyl}-[1,1′-biphenyl]-4-amido)-N,N,N-trimethylanilinium] gave an MIC of 1 to 10 µM.
`C[n+]1ccc(Nc2ccc(NC(=O)c3ccc(C(=O)Nc4ccc(Nc5cc[n+](C)cc5)cc4)c(Br)c3)cc2)cc1` [Example 87, 4,4′-((((2-bromoterephthaloyl)bis(azanediyl))bis(4,1-phenylene))bis(azanediyl))bis(1-methylpyridin-1-ium)] showed an MIC of 1 to 10 µM.

Same assay, conditions: Escherichia coli; E. coli BW25113; asterisk in column 10-50; read-out: MIC, μM 10-50
In the case of `Cc1c[n+](C)ccc1NC(=O)c1ccc(C(=O)Nc2ccc(Nc3cc[n+](C)cc3)cc2)cc1` [Example 55, 1,3-dimethyl-4-(4-((4-((1-methylpyridin-1-ium-4-yl)amino)phenyl)carbamoyl)benzamido)pyridin-1-ium], the MIC is reported as 10 to 50 µM.
Work on `C[n+]1ccc(NC(=O)c2ccc(C(=O)Nc3ccc(Nc4cc[n+](C)cc4)cc3)cc2)cc1` [Example 62, 1-methyl-4-(4-((4-((1-methylpyridin-1-ium-4-yl)amino)phenyl)carbamoyl)benzamido)pyridin-1-ium] yielded an MIC of 10 to 50 µM.
`C[n+]1ccc(NC(=O)c2ccc(C(=O)Nc3ccc(Nc4cc[n+](C)cc4)c(F)c3)cc2)cc1` [Example 66, 1-methyl-4-(4-((3-fluoro-4-((1-methylpyridin-1-ium-4-yl)amino)phenyl)carbamoyl)benzamido)pyridin-1-ium] was tested, and the MIC was 10 to 50 µM.
Work on `C[n+]1ccc(Oc2ccc(NC(=O)c3ccc(C(=O)Nc4ccc(Oc5cc[n+](C)cc5)cc4)c([N+](=O)[O-])c3)cc2)cc1` [Example 84, 4,4′-((((2-nitroterephthaloyl)bis(azanediyl))bis(4,1-phenylene))bis(oxy))bis(1-methylpyridin-1-ium)] yielded an MIC of 10 to 50 µM.
Work on `C[N+](C)(C)c1ccc(NC(=O)c2ccc(-c3ccc(C(=O)Nc4ccc([N+](C)(C)C)c(Br)c4)cc3)cc2)cc1Br` [Example 86, 4,4′-(([1,1′-biphenyl]-4,4′-dicarbonyl)bis(azanediyl))bis(2-bromo-N,N,N-trimethylbenzenaminium)] yielded an MIC of 10 to 50 µM.
In the case of `C[n+]1ccc(Oc2ccc(NC(=O)c3ccc(C(=O)Nc4ccc(Oc5cc[n+](C)cc5)cc4)c(N)c3)cc2)cc1` [Example 89, 4,4′-((((2-aminoterephthaloyl)bis(azanediyl))bis(4,1-phenylene))bis(oxy))bis(1-methylpyridin-1-ium)], the MIC is reported as 10 to 50 µM.

Same assay, conditions: Escherichia coli; E. coli BW25113; asterisk in column >50; read-out: MIC, μM >50
Work on `CN1CCC(Nc2ccc(NC(=O)c3ccc(C(=O)Nc4ccc(NC5CCN(C)CC5)cc4)cc3)cc2)CC1` [Example 50, N^1,N^4-bis(4-((1-methylpiperidin-4-yl)amino)phenyl)terephthalamide] yielded an MIC of over 50 µM.
For `O=C(Nc1ccc(Nc2ccncc2)cc1)c1ccc(C(=O)Nc2ccc(Nc3ccncc3)cc2)c(F)c1` [Example 51, 2-fluoro-N^1,N^4-bis(4-(pyridin-4-ylamino)phenyl)terephthalamide], the MIC was over 50 µM.
Work on `C[N+](C)(C)c1ccc(NC(=O)c2ccc(Cc3ccc(C(=O)Nc4ccc([N+](C)(C)C)cc4)cc3)cc2)cc1` [Example 53] yielded an MIC of over 50 µM.
Work on `O=C(Nc1ccc(-c2ccncc2)cc1)c1ccc(C(=O)Nc2ccc(-c3ccncc3)cc2)cc1` [Example 54, N^1,N^4-bis(4-(pyridin-4-yl)phenyl)terephthalamide] yielded an MIC of over 50 µM.
Work on `C[n+]1ccc(-c2ccc(NC(=O)c3ccc(-c4ccc(C(=O)Nc5ccc(-c6cc[n+](C)cc6)cc5)cc4)cc3)cc2)cc1` [Example 59, 4,4′-((([1,1′-biphenyl]-4,4′-dicarbonyl)bis(azanediyl))bis(4,1-phenylene))bis(1-methylpyridin-1-ium)] yielded an MIC of over 50 µM.
`O=C(Nc1ccc(Nc2ccncc2)cc1)[C@H]1CC[C@H](C(=O)Nc2ccc(Nc3ccncc3)cc2)CC1` [Example 60, (E)-N^1,N^4-bis(4-(pyridin-4-ylamino)phenyl)cyclohexane-1,4-dicarboxamide] gave an MIC of over 50 µM.
`C[N+](C)(C)C1CCC(NC(=O)c2ccc(-c3ccc(C(=O)NC4CCC([N+](C)(C)C)CC4)cc3)cc2)CC1` (stereo not shown) [Example 61, 4,4′-(([1,1′-biphenyl]-4,4′-dicarbonyl)bis(azanediyl))bis(N,N,N-trimethylcyclohexan-1-aminium)] gave an MIC of over 50 µM.
`COc1cc(Nc2cc[n+](C)cc2)ccc1NC(=O)c1ccc(C(=O)Nc2cc[n+](C)cc2)cc1` [Example 63, 4-(4-((2-methoxy-4-((1-methylpyridin-1-ium-4-yl)amino)phenyl)carbamoyl)benzamido)-1-methylpyridin-1-ium] gave an MIC of over 50 µM.
Work on `Cc1cc(NC(=O)c2ccc(C(=O)Nc3ccncc3)cc2)ccc1Nc1ccncc1` [Example 64, N^1-(3-methyl-4-(pyridin-4-ylamino)phenyl)-N^4-(pyridin-4-yl)terephthalamide] yielded an MIC of over 50 µM.
Work on `Cc1cc(Nc2cc[n+](C)cc2)ccc1NC(=O)c1ccc(C(=O)Nc2cc[n+](C)cc2)cc1` [Example 67, 1-methyl-4-(4-((2-methyl-4-((1-methylpyridin-1-ium-4-yl)amino)phenyl)carbamoyl)benzamido)pyridin-1-ium] yielded an MIC of over 50 µM.
In the case of `O=C(Nc1ccc(Nc2ccncc2)cc1)c1ccc(C(=O)Nc2ccc(Nc3ccncc3)cc2)c(Br)c1` [Example 68, 2-bromo-N^1,N^4-bis(4-(pyridin-4-ylamino)phenyl)terephthalamide], the MIC is reported as over 50 µM.
With `C[n+]1ccc(Nc2ccc(NC(=O)C3CCC(C(=O)Nc4ccc(Nc5cc[n+](C)cc5)cc4)CC3)cc2)cc1` (stereo not shown) [Example 69, 4,4′-((((E)-cyclohexanedicarbonylbis(azanediyl))bis(4,1-phenylene))bis(azanediyl))bis(1-methylpyridin-1-ium)] the MIC was over 50 µM.
`CN(C)c1ccc(NS(=O)(=O)c2ccc(-c3ccc(S(=O)(=O)Nc4ccc(N(C)C)cc4)cc3)cc2)cc1` [Example 70, N^4, N^4′-bis(4-(dimethylamino)phenyl)-[1,1′-biphenyl]-4,4′-disulfonamide] gave an MIC of over 50 µM.
`C[N+](C)(C)c1ccc(NS(=O)(=O)c2ccc(-c3ccc(S(=O)(=O)Nc4ccc([N+](C)(C)C)cc4)cc3)cc2)cc1` [Example 71] showed an MIC of over 50 µM.
`CN(C)c1ccc(NC(=O)c2ccc(-c3ccc(C(=O)Nc4ccc(N(C)C)cc4)cn3)nc2)cc1` [Example 72, N^5,N^5′-bis(4-(dimethylamino)phenyl)-[2,2′-bipyridine]-5,5′-dicarboxamide] gave an MIC of over 50 µM.
With `C[N+](C)(C)c1ccc(NC(=O)c2ccc(-c3ccc(C(=O)Nc4ccc([N+](C)(C)C)cc4)cn3)nc2)cc1` [Example 73, 4,4′-(([2,2′-bipyridine]-5,5′-dicarbonyl)bis(azanediyl))bis(N,N,N-trimethylbenzenaminium)] the MIC was over 50 µM.
Work on `CN(C)c1ccc(NC(=O)c2ccc(-c3ccc(C(=O)Nc4ccc(N(C)C)c(C(F)(F)F)c4)cc3)cc2)cc1C(F)(F)F` [Example 74, N^4,N^4′-bis(4-(dimethylamino)-3-(trifluoromethyl)phenyl)-[1,1′-biphenyl]-4,4′-dicarboxamide] yielded an MIC of over 50 µM.
For `CN(C)c1ccc(NC(=O)c2ccc(-c3ccc(C(=O)Nc4ccc(N(C)C)c(F)c4)cc3)cc2)cc1F` [Example 75, N^4,N^4′-bis(4-(dimethylamino)-3-fluorophenyl)-[1,1′-biphenyl]-4,4′-dicarboxamide], the MIC was over 50 µM.
Work on `CN(C)c1ccc(NC(=O)c2ccnc(-c3cc(C(=O)Nc4ccc(N(C)C)cc4)ccn3)c2)cc1` [Example 76, N^4,N^4′-bis(4-(dimethylamino)phenyl)-[2,2′-bipyridine]-4,4′-dicarboxamide] yielded an MIC of over 50 µM.
For `C[N+](C)(C)c1ccc(NC(=O)c2ccnc(-c3cc(C(=O)Nc4ccc([N+](C)(C)C)cc4)ccn3)c2)cc1` [Example 78, 4,4′-(([2,2′-bipyridine]-4,4′-dicarbonyl)bis(azanediyl))bis(N,N,N-trimethylbenzenaminium)], the MIC was over 50 µM.
Compound `O=C(Nc1ccc(Nc2ccncc2)cc1)c1ccc(C(=O)Nc2ccc(Nc3ccncc3)cc2)nc1` [Example 79, N^2,N^5-bis(4-(pyridin-4-ylamino)phenyl)pyridine-2,5-dicarboxamide] has an MIC of over 50 µM.
`CN(C)c1ccc(NC(=O)c2ccc(-c3ccc(C(=O)Nc4ccc(N(C)C)c(Br)c4)cc3)cc2)cc1Br` [Example 80, N^4,N^4′-bis(3-bromo-4-(dimethylamino)phenyl)-[1,1′-biphenyl]-4,4′-dicarboxamide] was tested, and the MIC was over 50 µM.
Compound `O=C(Nc1ccc(-c2ccc(NC(=O)c3ccncc3)cc2)cc1)c1ccncc1` [Example 81, N,N′-([1,1′-biphenyl]-4,4′-diyl)diisonicotinamide] has an MIC of over 50 µM.
With `C[N+](C)(C)c1ccc(NC(=O)c2ccc(-c3ccc(C(=O)Nc4ccc([N+](C)(C)C)c(C(F)(F)F)c4)cc3)cc2)cc1C(F)(F)F` [Example 82, 4,4′-(([1,1′-biphenyl]-4,4′-dicarbonyl)bis(azanediyl))bis(N,N,N-trimethyl-2-(trifluoromethyl)benzenaminium)] the MIC was over 50 µM.
Compound `O=C(Nc1ccc(Oc2ccncc2)cc1)c1ccc(C(=O)Nc2ccc(Oc3ccncc3)cc2)c([N+](=O)[O-])c1` [Example 83, 2-nitro-N^1,N^4-bis(4-(pyridin-4-yloxy)phenyl)terephthalamide] has an MIC of over 50 µM.
Work on `C[n+]1ccc(C(=O)Nc2ccc(-c3ccc(NC(=O)c4cc[n+](C)cc4)cc3)cc2)cc1` [Example 85, 4,4′-(([1,1′-biphenyl]-4,4′-diylbis(azanediyl))bis(carbonyl))bis(1-methylpyridin-1-ium)] yielded an MIC of over 50 µM.
